How the values were obtained:
Test in all cases: WST-1 cell viability assay
Calu-3 = settings: Calu-3, NRP1-expressing; 0, 1, 2, and 4 μM, 48 hours
H1299 = settings: H1299, NRP1-expressing; 0, 1, 2, and 4 μM, 48 hours
A549 = settings: A549, NRP1-expressing; 0, 1, 2, and 4 μM, 48 hours
Calu-1 = settings: Calu-1, NRP1-expressing; 0, 1, 2, and 4 μM, 48 hours
H441 = settings: H441, NRP1-expressing; 0, 1, 2, and 4 μM, 48 hours
HCC44 = settings: HCC44, NRP1-expressing; 0, 1, 2, and 4 μM, 48 hours
SK-LU-1 = settings: SK-LU-1, NRP1-expressing; 0, 1, 2, and 4 μM, 48 hours
H460 = settings: H460, expressing no NRP1; 0, 1, 2, and 4 μM, 48 hours

| Substance | cell growth inhibitory activity (WST-1) (Calu-3) | cell growth inhibitory activity (WST-1) (H1299) | cell growth inhibitory activity (WST-1) (A549) | cell growth inhibitory activity (WST-1) (Calu-1) | cell growth inhibitory activity (WST-1) (H441) | cell growth inhibitory activity (WST-1) (HCC44) | cell growth inhibitory activity (WST-1) (SK-LU-1) | cell growth inhibitory activity (WST-1) (H460) |
| --- | --- | --- | --- | --- | --- | --- | --- | --- |
| Pnm-TPP11: TPP11 peptide fused to C-terminus of Pnm heavy chain by (G4S)3 linker; heavy chain SEQ ID NO: 10, light chain SEQ ID NO: 14 | showed the same inhibitory activity against cell growth | showed cell growth inhibitory activity | showed the same inhibitory activity against cell growth | showed the same inhibitory activity against cell growth | showed cell growth inhibitory activity | showed the same inhibitory activity against cell growth | showed cell growth inhibitory activity | showed no effect |
| Panitumumab [Pnm, reference compound] | showed the same inhibitory activity against cell growth | only Pnm-TPP11 showed cell growth inhibitory activity, unlike Pnm | showed the same inhibitory activity against cell growth | showed the same inhibitory activity against cell growth | only Pnm-TPP11 showed cell growth inhibitory activity, unlike Pnm | showed the same inhibitory activity against cell growth | only Pnm-TPP11 showed cell growth inhibitory activity, unlike Pnm |  |

Source: patent US11548915B2, “Composition for overcoming resistance to EGFR-targeting agent” (Pinetree Therapeutics, Inc., priority 2016, dated 2023)
